According to the NIST ThermoML archive (doi:10.1021/je049671t):

Experiment: xn = mol fraction of the nth substance listed
Details: Liquid, Vibrating tube method

CCCC [butane] + CCC
Details | mass density [kg/m3]
239.04 K, 463.7 kPa, x2 = 0.25 | 622.82
239.04 K, 943.7 kPa, x2 = 0.25 | 623.31
239.04 K, 1507.7 kPa, x2 = 0.25 | 623.9
239.04 K, 1962.4 kPa, x2 = 0.25 | 624.35
239.04 K, 2486.4 kPa, x2 = 0.25 | 624.89
239.04 K, 3058.3 kPa, x2 = 0.25 | 625.46
239.04 K, 3473.7 kPa, x2 = 0.25 | 625.88
239.04 K, 3994 kPa, x2 = 0.25 | 626.39
239.04 K, 4514.6 kPa, x2 = 0.25 | 626.9
239.04 K, 4950 kPa, x2 = 0.25 | 627.33
239.04 K, 5524.3 kPa, x2 = 0.25 | 627.9
239.04 K, 6029.4 kPa, x2 = 0.25 | 628.39
239.04 K, 6518 kPa, x2 = 0.25 | 628.86
239.04 K, 6930.6 kPa, x2 = 0.25 | 629.26
240 K, 478.5 kPa, x2 = 0.5 | 606.78
240 K, 514.9 kPa, x2 = 0.75 | 589.83
240 K, 996.7 kPa, x2 = 0.5 | 607.38
240 K, 1006.3 kPa, x2 = 0.75 | 590.44
240 K, 1479 kPa, x2 = 0.5 | 607.88
240 K, 1505.4 kPa, x2 = 0.75 | 591.03
240 K, 1962.4 kPa, x2 = 0.5 | 608.42
240 K, 2024.2 kPa, x2 = 0.75 | 591.63
240 K, 2491.6 kPa, x2 = 0.5 | 609
240 K, 2519.5 kPa, x2 = 0.75 | 592.21
240 K, 2956 kPa, x2 = 0.5 | 609.51
240 K, 3022.7 kPa, x2 = 0.75 | 592.8
240 K, 3501.4 kPa, x2 = 0.5 | 610.09
240 K, 3519.4 kPa, x2 = 0.75 | 593.39
240 K, 3952.5 kPa, x2 = 0.5 | 610.58
240 K, 4031.2 kPa, x2 = 0.75 | 593.97
240 K, 4493.1 kPa, x2 = 0.5 | 611.14
240 K, 4526.8 kPa, x2 = 0.75 | 594.51
240 K, 4946.9 kPa, x2 = 0.75 | 594.99
240 K, 4972.1 kPa, x2 = 0.5 | 611.66
240 K, 5472.1 kPa, x2 = 0.5 | 612.19
240 K, 5521.6 kPa, x2 = 0.75 | 595.64
240 K, 6000.1 kPa, x2 = 0.5 | 612.74
240 K, 6044.8 kPa, x2 = 0.75 | 596.2
240 K, 6502.7 kPa, x2 = 0.5 | 613.25
240 K, 6539.6 kPa, x2 = 0.75 | 596.77
240 K, 6973.1 kPa, x2 = 0.5 | 613.74
240 K, 7045.6 kPa, x2 = 0.75 | 597.3
260 K, 489.6 kPa, x2 = 0.75 | 566.44
260 K, 495.8 kPa, x2 = 0.5 | 585.02
260 K, 524.1 kPa, x2 = 0.25 | 600.69
260 K, 996.9 kPa, x2 = 0.75 | 567.21
260 K, 1001.1 kPa, x2 = 0.5 | 585.74
260 K, 1004.9 kPa, x2 = 0.25 | 601.3
260 K, 1482.5 kPa, x2 = 0.25 | 601.91
260 K, 1504.2 kPa, x2 = 0.75 | 567.97
260 K, 1506.4 kPa, x2 = 0.5 | 586.42
260 K, 1989.9 kPa, x2 = 0.25 | 602.54
260 K, 2003.6 kPa, x2 = 0.75 | 568.71
260 K, 2004.6 kPa, x2 = 0.5 | 587.1
260 K, 2508.4 kPa, x2 = 0.75 | 569.45
260 K, 2517.2 kPa, x2 = 0.5 | 587.78
260 K, 2521.3 kPa, x2 = 0.25 | 603.2
260 K, 3004 kPa, x2 = 0.25 | 603.79
260 K, 3014.9 kPa, x2 = 0.5 | 588.45
260 K, 3015.6 kPa, x2 = 0.75 | 570.19
260 K, 3449.6 kPa, x2 = 0.25 | 604.34
260 K, 3495.5 kPa, x2 = 0.75 | 570.88
260 K, 3506 kPa, x2 = 0.5 | 589.1
260 K, 4004.5 kPa, x2 = 0.5 | 589.73
260 K, 4006.2 kPa, x2 = 0.75 | 571.62
260 K, 4007 kPa, x2 = 0.25 | 605.01
260 K, 4494.5 kPa, x2 = 0.75 | 572.27
260 K, 4511.7 kPa, x2 = 0.25 | 605.63
260 K, 4525.9 kPa, x2 = 0.5 | 590.39
260 K, 5017.4 kPa, x2 = 0.5 | 591.03
260 K, 5017.7 kPa, x2 = 0.25 | 606.24
260 K, 5022.8 kPa, x2 = 0.75 | 573.01
260 K, 5508.1 kPa, x2 = 0.75 | 573.69
260 K, 5512.4 kPa, x2 = 0.25 | 606.82
260 K, 5513.7 kPa, x2 = 0.5 | 591.66
260 K, 6015.4 kPa, x2 = 0.5 | 592.29
260 K, 6034.1 kPa, x2 = 0.25 | 607.43
260 K, 6049.2 kPa, x2 = 0.75 | 574.41
260 K, 6498.8 kPa, x2 = 0.75 | 575.04
260 K, 6503.8 kPa, x2 = 0.25 | 607.98
260 K, 6512.1 kPa, x2 = 0.5 | 592.9
260 K, 6943 kPa, x2 = 0.75 | 575.6
260 K, 6986.6 kPa, x2 = 0.5 | 593.49
260 K, 7011.2 kPa, x2 = 0.25 | 608.56
280 K, 524.1 kPa, x2 = 0.25 | 578.3
280 K, 533.2 kPa, x2 = 0.5 | 561.24
280 K, 994.1 kPa, x2 = 0.25 | 579.05
280 K, 996.1 kPa, x2 = 0.5 | 562.05
280 K, 1496.7 kPa, x2 = 0.25 | 579.83
280 K, 1503.2 kPa, x2 = 0.5 | 562.93
280 K, 1506.3 kPa, x2 = 0.75 | 543.19
280 K, 2004.1 kPa, x2 = 0.5 | 563.79
280 K, 2012.9 kPa, x2 = 0.75 | 544.18
280 K, 2015.5 kPa, x2 = 0.25 | 580.63
280 K, 2501.9 kPa, x2 = 0.5 | 564.62
280 K, 2503.9 kPa, x2 = 0.25 | 581.38
280 K, 2509.6 kPa, x2 = 0.75 | 545.11
280 K, 3000.3 kPa, x2 = 0.25 | 582.13
280 K, 3006.4 kPa, x2 = 0.5 | 565.46
280 K, 3018.4 kPa, x2 = 0.75 | 546.06
280 K, 3502.3 kPa, x2 = 0.25 | 582.88
280 K, 3504.2 kPa, x2 = 0.5 | 566.28
280 K, 3513.7 kPa, x2 = 0.75 | 546.96
280 K, 4015 kPa, x2 = 0.25 | 583.63
280 K, 4015 kPa, x2 = 0.75 | 547.86
280 K, 4016.7 kPa, x2 = 0.5 | 567.11
280 K, 4505.3 kPa, x2 = 0.25 | 584.35
280 K, 4508.2 kPa, x2 = 0.75 | 548.75
280 K, 4524.6 kPa, x2 = 0.5 | 567.93
280 K, 4984.9 kPa, x2 = 0.75 | 549.59
280 K, 4998.7 kPa, x2 = 0.5 | 568.69
280 K, 5019.7 kPa, x2 = 0.25 | 585.09
280 K, 5502.7 kPa, x2 = 0.25 | 585.78
280 K, 5506.3 kPa, x2 = 0.5 | 569.47
280 K, 5508.8 kPa, x2 = 0.75 | 550.5
280 K, 6005.9 kPa, x2 = 0.25 | 586.49
280 K, 6009.4 kPa, x2 = 0.5 | 570.25
280 K, 6043.7 kPa, x2 = 0.75 | 551.39
280 K, 6507.4 kPa, x2 = 0.5 | 571.01
280 K, 6517.1 kPa, x2 = 0.25 | 587.21
280 K, 6530.4 kPa, x2 = 0.75 | 552.22
280 K, 6972.3 kPa, x2 = 0.5 | 571.72
280 K, 7009.3 kPa, x2 = 0.25 | 587.89
280 K, 7012.2 kPa, x2 = 0.75 | 553.04
300 K, 990 kPa, x2 = 0.5 | 536.26
300 K, 1002.3 kPa, x2 = 0.75 | 514.75
300 K, 1005.5 kPa, x2 = 0.25 | 555.26
300 K, 1504.4 kPa, x2 = 0.25 | 556.28
300 K, 1504.7 kPa, x2 = 0.75 | 516.09
300 K, 1541.4 kPa, x2 = 0.5 | 537.52
300 K, 1950.9 kPa, x2 = 0.5 | 538.44
300 K, 1972.1 kPa, x2 = 0.75 | 517.33
300 K, 2002.5 kPa, x2 = 0.25 | 557.25
300 K, 2461.4 kPa, x2 = 0.5 | 539.56
300 K, 2497.9 kPa, x2 = 0.25 | 558.21
300 K, 2507.7 kPa, x2 = 0.75 | 518.69
300 K, 2946.2 kPa, x2 = 0.5 | 540.6
300 K, 3009.2 kPa, x2 = 0.75 | 519.95
300 K, 3012.5 kPa, x2 = 0.25 | 559.2
300 K, 3505.6 kPa, x2 = 0.5 | 541.79
300 K, 3507.9 kPa, x2 = 0.25 | 560.13
300 K, 3511.5 kPa, x2 = 0.75 | 521.18
300 K, 3998.7 kPa, x2 = 0.25 | 561.02
300 K, 4015.9 kPa, x2 = 0.5 | 542.85
300 K, 4017.5 kPa, x2 = 0.75 | 522.39
300 K, 4511.3 kPa, x2 = 0.25 | 561.97

mass density [kg/m3]
Details | 240 K | 260 K | 280 K
x2 = 0.25 | – | 600.21 | 577.86
x2 = 0.5 | 606.37 | 584.58 | 560.91
x2 = 0.75 | 589.36 | 566.05 | 541.14
